According to patent publication US20250360505A1, “MICRO-BIOELECTROCHEMICAL CELL DEVICES AND METHODS OF DETECTING ELECTRON FLOWS” (Washington University, priority 2019, published 2025):

Tested on: Rhodopseudomonas palustris TIE-1 wild-type biofilms
Assay: μ-BEC current density measurement of extracellular electron uptake (EEU) by surface-attached biofilms treated with photosynthetic ETC inhibitors
Assay type: cell-based
Details: working electrode poised at +100 mV vs. SHE, inhibitor concentration not given
[1] = illuminated (phototrophic) conditions

Row | Molecule | Current density (dark conditions) [nA cm^−2] | Current density [1] [nA cm^−2]
1 | N#CC(C#N)=NNc1cccc(Cl)c1 [CCCP, carbonyl cyanide m-chlorophenyl hydrazone] | −18.4±14.0 | 21.2±9.13
2 | antimycin A | −3.46±1.80 | 12.46±1.34
